Measurements from PubChem BioAssay (NCI).
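Exposure lasted 48 hours, with cells grown in 96-well plates and compounds tested at five concentrations. The concentration for full growth arrest is given as TGI.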

Experiments:
Test in all cases: NCI tumour cell line growth inhibition, 48 h
NCI-H522 lung = system: NCI-H522 lung
SNB-19 CNS = system: SNB-19 CNS
SR leukemia = system: SR leukemia
MCF7 breast = system: MCF7 breast
IGROV1 ovarian = system: IGROV1 ovarian
HCC-2998 colon = system: HCC-2998 colon
TK-10 renal = system: TK-10 renal
SK-MEL-5 melanoma = system: SK-MEL-5 melanoma
U251 CNS = system: U251 CNS
KM12 colon = system: KM12 colon
NCI/ADR-RES ovarian = system: NCI/ADR-RES ovarian
K-562 leukemia = system: K-562 leukemia
HOP-92 NSCLC = system: HOP-92 NSCLC
OVCAR-4 ovarian = system: OVCAR-4 ovarian
MDA-N = system: MDA-N
DU-145 prostate = system: DU-145 prostate
MALME-3M melanoma = system: MALME-3M melanoma
SF-268 CNS = system: SF-268 CNS
UACC-257 melanoma = system: UACC-257 melanoma
OVCAR-3 ovarian = system: OVCAR-3 ovarian
OVCAR-5 ovarian = system: OVCAR-5 ovarian
OVCAR-8 ovarian = system: OVCAR-8 ovarian
NCI-H460 lung = system: NCI-H460 lung
MDA-MB-231 breast = system: MDA-MB-231 breast
COLO 205 colon = system: COLO 205 colon
786-0 renal = system: 786-0 renal
LOX IMVI melanoma = system: LOX IMVI melanoma
BT-549 breast = system: BT-549 breast
NCI-H226 lung = system: NCI-H226 lung
M14 melanoma = system: M14 melanoma
T-47D breast = system: T-47D breast
HL-60(TB) leukemia = system: HL-60(TB) leukemia
CAKI-1 renal = system: CAKI-1 renal
PC-3 prostate = system: PC-3 prostate
SF-539 CNS = system: SF-539 CNS
HT29 colon = system: HT29 colon
A549 NSCLC = system: A549 NSCLC
SK-OV-3 ovarian = system: SK-OV-3 ovarian
SW-620 colon = system: SW-620 colon
HOP-62 NSCLC = system: HOP-62 NSCLC
NCI-H23 lung = system: NCI-H23 lung
HS 578T breast = system: HS 578T breast
RPMI-8226 leukemia = system: RPMI-8226 leukemia
RXF 393 renal = system: RXF 393 renal
MDA-MB-435 = system: MDA-MB-435
UO-31 renal = system: UO-31 renal
MOLT-4 leukemia = system: MOLT-4 leukemia
SK-MEL-28 melanoma = system: SK-MEL-28 melanoma
CCRF-CEM leukemia = system: CCRF-CEM leukemia
HCT-116 colon = system: HCT-116 colon
ACHN renal = system: ACHN renal
UACC-62 melanoma = system: UACC-62 melanoma
EKVX NSCLC = system: EKVX NSCLC
A498 renal = system: A498 renal
SN12C renal = system: SN12C renal
HCT-15 colon = system: HCT-15 colon
SK-MEL-2 melanoma = system: SK-MEL-2 melanoma
SF-295 CNS = system: SF-295 CNS

## COC(=O)[C@]12CC[C@H]3CN(C(=O)OCc4ccccc4)[C@H]([C@H]31)[C@H](C(=O)OCC[Si](C)(C)C)N2S(=O)(=O)c1ccc(C)cc1
NCI-H522 lung
  TGI: > 100 µM
SNB-19 CNS
  TGI: > 100 µM
SR leukemia
  TGI: > 100 µM
MCF7 breast
  TGI: > 100 µM
IGROV1 ovarian
  TGI: > 100 µM
HCC-2998 colon
  TGI: > 100 µM
TK-10 renal
  TGI: > 100 µM
SK-MEL-5 melanoma
  TGI: > 100 µM
U251 CNS
  TGI: > 100 µM
KM12 colon
  TGI: > 100 µM
NCI/ADR-RES ovarian
  TGI: > 100 µM
K-562 leukemia
  TGI: > 100 µM
HOP-92 NSCLC
  TGI: 9.68 µM
OVCAR-4 ovarian
  TGI: > 100 µM
MDA-N
  TGI: > 100 µM
DU-145 prostate
  TGI: > 100 µM
MALME-3M melanoma
  TGI: > 100 µM
SF-268 CNS
  TGI: > 100 µM
UACC-257 melanoma
  TGI: > 100 µM
OVCAR-3 ovarian
  TGI: > 100 µM
OVCAR-5 ovarian
  TGI: > 100 µM
OVCAR-8 ovarian
  TGI: > 100 µM
NCI-H460 lung
  TGI: > 100 µM
MDA-MB-231 breast
  TGI: > 100 µM
COLO 205 colon
  TGI: > 100 µM
786-0 renal
  TGI: > 100 µM
LOX IMVI melanoma
  TGI: > 100 µM
BT-549 breast
  TGI: > 100 µM
NCI-H226 lung
  TGI: > 100 µM
M14 melanoma
  TGI: > 100 µM
T-47D breast
  TGI: > 100 µM
HL-60(TB) leukemia
  TGI: > 100 µM
CAKI-1 renal
  TGI: > 100 µM
PC-3 prostate
  TGI: > 100 µM
SF-539 CNS
  TGI: > 100 µM
HT29 colon
  TGI: > 100 µM
A549 NSCLC
  TGI: > 100 µM
SK-OV-3 ovarian
  TGI: > 100 µM
SW-620 colon
  TGI: > 100 µM
HOP-62 NSCLC
  TGI: > 100 µM
NCI-H23 lung
  TGI: > 100 µM
HS 578T breast
  TGI: > 100 µM
RPMI-8226 leukemia
  TGI: > 100 µM
RXF 393 renal
  TGI: > 100 µM
MDA-MB-435
  TGI: > 100 µM
UO-31 renal
  TGI: > 100 µM
MOLT-4 leukemia
  TGI: > 100 µM
SK-MEL-28 melanoma
  TGI: > 100 µM
CCRF-CEM leukemia
  TGI: > 100 µM
HCT-116 colon
  TGI: > 100 µM
ACHN renal
  TGI: > 100 µM
UACC-62 melanoma
  TGI: > 100 µM
EKVX NSCLC
  TGI: > 100 µM
A498 renal
  TGI: > 100 µM
SN12C renal
  TGI: > 100 µM
HCT-15 colon
  TGI: > 100 µM
SK-MEL-2 melanoma
  TGI: > 100 µM
SF-295 CNS
  TGI: > 100 µM
